Source: patent US6939511B2, “Contact lens treating method and composition” (Novartis AG, priority 2000, dated 2005)

Tested on: L929 mammalian fibroblasts
Test: MEM (Minimum Essential Medium) USP elution in-vitro toxicity test
Format: cell-based
Text: In testing the toxicity of compounds of the compositions disclosed in solution, an MEM test procedure is used. The MEM (Minimum Essential Medium) test procedure is employed to evaluate cytoxicity using standard USP (The United States Pharmacopeial Convention) elution assays. A description of the test procedure is provided herein.
The assay provides a means of evaluating extracts of polymeric materials under direct contact conditions. This method is appropriate for high-density materials and for dose-response evaluations.
All reagents should be tissue culture grade or equivalent and should be reconstituted in accordance with manufacturer's instructions using aseptic technique.
Media Preparation: 1× MEM media is prepared by mixing 100 mL Eagle's MEM (with Earl's Salts and Sodium Bicarbonate, without L-glutamine), with 10 mL serum, 1 mL-glutamine solution, and 0.5 mL antibiotic solution (L-glutamine and antibiotic solutions are purchased at correct concentrations and stored frozen at −20° C.±2). Eagle's MEM is a sterile minimum essential medium and is available from Mediatech Celigro. Media may be stored up to 2 weeks at a temperature of 2° C.±2 after L-glutamine and antibiotics are added, or up to 1 month, if only serum is added. Preparation of 0.25% Trypsin: 10× Trypsin is placed in sterile 50 ml centrifuge tubes in 4 ml aliquots and stored frozen at −20° C.±2. Before use, a 4 ml aliquot of 10× trypsin is diluted 1:9 with 36 ml of Dulbecco's Phosphate Buffered Saline (PBS) to yield a 0.25% solution. Dulbecco's Saline is available from Mediatech Cellgro. Sterile 35 mm diameter petri dishes or 6 well tissue culture plates are used. Sterile serological pipets are employed in the procedure. Sterile absorbent material (e.g. Kay-Drys or similar material) is used. L929 mammalian fibroblasts (ATCC cell line CCL1, NCTC clone 929) are employed. […]
Exposure to Test Extracts: Exposure to test extracts is determined examining a representative prepared cell culture plate using the microscope to observe the cell monolayer for correct confluency. […]

`O.O.O.O.O.O.O=C([O-])c1ccccc1C(=O)O[O-].[Mg+2]` [magnesium perphthalate, magnesium monoperoxyphthalate hexahydrate] was tested, and the cells dead (concentrations below 0.5%) was 2-3%, the “MEM Test Result level” value (concentrations below 0.5%, generally) was 1 (Slight Not more than 20% of cells round and loosely attached—occasional lysed cells present) and the “toxicity level MEM” value (concentrations of 0.5% and above, with and without saline) was 4.
